These results are taken from patent US20100292287A1, “Periodontitis treatment” (priority 2009, published 2010).

The subject of series [1] is diabetic Sprague Dawley rats injected with lipopolysaccharide from Porphyromonas gingivalis. Briefly: LPS-induced periodontitis (alveolar bone loss, root/enamel ratio) in streptozotocin diabetic rats fed ARI diets. The format is in vivo, rat. As to conditions: for ratio of exposed root to enamel area, PBS side: PBS injected (left, internal control) side; for ratio of exposed root to enamel area, PBS side / ratio of exposed root to enamel area, LPS side: mean±S.E.M.; for ratio of exposed root to enamel area, LPS side: LPS injected (right) side. As to the method:
A group of 80 approximately 81-100 g male Sprague Dawley rats were utilized for this study. Diabetes was induced in 40 of these rats by tail vein injection of 75 mg/kg of streptozotocin. After 3 days, blood glucose (BG) levels in blood obtained from tail vein lacerations were analyzed with a commercial glucometer (Freestyle by TheraSense, Alameda, Calif.). Each rat with BG levels <300 mg/dL were reinjected with streptozotocin. Again, BGs were measured after 3 days, and the procedure was repeated a third time for remaining rats with BGs <300 mg/dL.
(§1) All rats with blood glucose levels >300 mg/dL were then equally divided into 4 groups. The first diabetic group of 8 rats received standard rat diet (BioServe), the second received similar rat diet containing 0.015% of tolrestat, the third group received similar diet containing 0.0125% imirestat, and the fourth group received similar diet containing 0.08% quercetin. Experimental diets were initiated 10 days following initial streptozotocin injections and continued for 10 weeks until the studies were terminated. Non-diabetic age-matched rats were also added as additional non-diabetic controls. These consisted of 4 groups of 8 rats each as follows: an untreated non-diabetic group received standard rat diet, the second control group received similar rat diet containing 0.015% of tolrestat, the third control group received similar diet containing 0.0125% imirestat, and the fourth control group received similar diet containing 0.08% quercetin.
A maximum of 3 rats were housed per cage. Weekly consumption of diet/cage and body weights of each cage occupant was measured throughout the study. Drugs diets were prepared by adding the appropriate weight of drug to 3 kg portions of standard rat chow as follows. The weighed drug dissolved in 400 mL of ethanol was uniformly sprayed onto a monolayer of the rat chow. After the upper layer of chow was uniformly wetted, the chow was mixed and again formed into a monolayer, and the procedure was repeated until the entire drug solution was utilized. Following overnight oven drying to ensure that all solvent was removed, weighed amounts of diet were administered to each appropriate group of animals.
(§2) Forty-four days after initiation of diets, each rat was anesthetized with 4% isoflurane vapor in an induction chamber. Each rat was then placed on its back and the palatal gingiva between the first and second maxillary molars on the right side was injected with 10 μL of a phosphate-buffered saline (PBS) solution containing 1 mg/mL lipopolysaccharide LPS from Porphyromonas gingivalis (InvivoGen, San Diego, Calif.) using an insulin syringe equipped with a blunted edge 30-gauge needle to induce the formation of periodontitis. As a control, 10 μL of PBS was similarly injected into the left side of the jaw. This injection was followed by two additional injections at 48-hour intervals. Twenty-four days after the final injection, all rats were euthanized with carbon dioxide gas. The heads were decapitated with a guillotine and frozen for subsequent defleshing. Blood from each rat was obtained by heart puncture and HbA1c levels were measured using the Metrika A1cNOW Plus System Test Strips (Fisher Healthcare).
Each thawed head was manually defleshed using standard dental instruments by Dr. James O'Meara, Assoc. Professor of General Dentistry at Creighton University of Omaha, Nebr. The maxillary area was separated from the remaining skull using bone cutters, and each defleshed left and right maxillary alveolus with molars were stored in PBS buffer. Finally, all cleaned maxillary alveoli were placed in 3% aqueous peroxide solution overnight and air dried. They were then stained in 5% aqueous toluidine blue to identify the cemento-enamel junction (CEJ) on the molars. After air drying, each stained preparation was examined under a dissecting microscope and cleaned of any remaining flesh particles using the tip of a 20-gauge needle. […]

The conditions of series [2]: commercial version (Alredase), withdrawn 1996 or 1997; cited from earlier work.
Series [3] deals with non-diabetic Sprague Dawley rats injected with lipopolysaccharide from Porphyromonas gingivalis. Kind of series: LPS-induced periodontitis (alveolar bone loss, root/enamel ratio) in non-diabetic rats fed ARI diets. The format is in vivo, rat. Conditions: for ratio of exposed root to enamel area, LPS side / ratio of exposed root to enamel area, PBS side: non-diabetic rats; for ratio of exposed root to enamel area, LPS side: first value of 'LPS and PBS sides ... respective ratios'; for ratio of exposed root to enamel area, PBS side: second value of 'LPS and PBS sides ... respective ratios'; for difference in the ratios between the LPS and PBS sides: normal (non-diabetic) rats, FIG. 7. As to the method:
as §1, §2
Each thawed head was manually defleshed using standard dental instruments by Dr. James O'Meara, Assoc. Professor of General Dentistry at Creighton University of Omaha, Nebr. The maxillary area was separated from the remaining skull using bone cutters, and each defleshed left and right maxillary alveolus with molars were stored in PBS buffer. Finally, all cleaned maxillary alveoli were placed in 3% aqueous peroxide solution overnight and air dried. They were then stained in 5% aqueous toluidine blue to identify the cemento-enamel junction (CEJ) on the molars. After air drying, each stained preparation was examined under a dissecting microscope and cleaned of any remaining flesh particles using the tip of a 20-gauge needle. Each palatal preparation was then placed onto a 20 mm petri dish containing ultrafine chromatography grade silica and a mm ruler. The maxilla-molar area palatal sides were then photographed using a PAXcam2+ USB2 Digital Microscope Camera attached to a Zeiss dissection microscope at 40' magnification. 2.0 MP images were captured with 1616×1216 image resolution. The images were analyzed using Pax-it software (Paxcam, Chicago, Ill.). Care was taken to obtain images with consistent camera angles.
In each image the two molars between which the injections were made were analyzed. The exposed side of each molar was manually outlined along with the area encompassed by the cemento-enamel junction (CEJ) and exposed root area. To facilitate differentiation of the exposed root area and the CEJ, each photograph was photo-enhanced as required using sharpening or desaturating techniques. Multiple tracings were obtained and averaged for each image. Moreover, since tooth movement can also increase variability, multiple images of the same sample were also analyzed, if necessary. The area measurements from both molars were combined, and from these combined area measurements, a ratio of exposed root area (root to the CEJ) versus enamel area was obtained. […]

In series [4] the target is T1, TNF-α (Mus musculus, UniProt P06804).
T1 construct: host or cells: diabetic mice (in vivo, endogenous TNF-α)
T1 sequence (P06804 80-235 limits assumed): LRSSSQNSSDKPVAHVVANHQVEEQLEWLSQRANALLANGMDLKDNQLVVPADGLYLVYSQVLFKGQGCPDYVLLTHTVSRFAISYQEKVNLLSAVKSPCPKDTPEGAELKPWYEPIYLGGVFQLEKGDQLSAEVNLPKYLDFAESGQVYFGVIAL
As to conditions: diabetic mice inoculated with Porphyromonas gingivalis; cited from earlier work.

Series [5] relates to diabetic mice. Conditions: cited from earlier work.
In series [6] the test system is crevicular PMNs. Conditions: rats with chemically induced diabetes; cited from earlier work.

On to `COc1ccc2c(C(=S)N(C)CC(=O)O)cccc2c1C(F)(F)F` [tolrestat], for which the “ratio of exposed root to enamel area, PBS side” value (“ratio of exposed root … PBS side” for short) in series [1] is given as 0.435±0.010. The “reported adverse events leading to market withdrawal” value in series [2] is reported as “fatalities from hepatic necrosis”. Moreover, in series [3], the “ratio of exposed root to enamel area, LPS side” value (“ratio of exposed root … LPS side” below) was found to be 0.435±0.039; the “ratio of exposed root … PBS side” value was 0.422±0.036; the “difference in the ratios between the LPS and PBS sides” value is “no significant difference”.
For the compound `O=C1NC(=O)C2(N1)c1cc(F)ccc1-c1ccc(F)cc12` [imirestat], in series [1], the “ratio of exposed root … LPS side” value came out at 0.439±0.043 and the “ratio of exposed root … PBS side” value turned out to be 0.421±0.029. Besides, the alveolar bone loss entry in series [1] (result in words) is “effective in reducing alveolar bone loss”. In series [3], the “ratio of exposed root … LPS side” value is on record as 0.412±0.016; the “ratio of exposed root … PBS side” value was 0.439±0.0132; the “difference in the ratios between the LPS and PBS sides” value is given as “no significant difference”.
Regarding `O=c1c(O)c(-c2ccc(O)c(O)c2)oc2cc(O)cc(O)c12` [quercetin], in series [1], the “ratio of exposed root … LPS side” value was 0.448±0.057 and the “ratio of exposed root … PBS side” value was 0.440±0.023. Also, in series [3], the “ratio of exposed root … LPS side” value was determined as 0.406±0.018; the “ratio of exposed root … PBS side” value worked out at 0.417±0.042; the “difference in the ratios between the LPS and PBS sides” value is reported as “no significant difference”.
Turning to Enbrel, the prolonged cytokine expression result in series [4] was “reversal of the prolonged cytokine expression”.
Consider “N-benzyloxycarbonyl-Val-Ala-Asp-fluoromethyl-ketone [z-VAD-fmk]”, for which the “healing parameters (fibroblast density, collagen I and III mRNA, matrix formation, bone-lining cells, new bone formation)” value in series [5] is listed as “significant improvements in several healing parameters”.
Turning to “insulin: insulin administration to diabetic rats”, the “chemotactic response of crevicular PMNs to casein” value in series [6] is reported as “reverses this decrease”.
